Here are results for 1 compound from PMC12346198 (Cancers, 2025).

Series [1] can be described thus: Thermodynamic solubility in fasted-state simulated intestinal fluid (FaSSIF). The settings on record: pH 6.5, LLOQ < 1.56 µM. The format is physicochemical. The method, then: The thermodynamic solubility analysis in biological media and the quantitative analysis of samples were performed according to the standard protocol at WuXi AppTec (Shanghai, China).
The nature of series [2]: Pharmacokinetic modeling of valine pro-drug conversion to parent. It is filed as in vivo, mice. The text has this:
A total of 36 mice with available PK data were included for non-linear mixed-effects analysis using NONMEM (version 7.5.0, ICON Development Solutions, Ellicott City, MD, USA), implementing the first-order conditional estimation with interaction (FOCE-I). R (version 4.2.0, R Foundation for Statistical Computing, Vienna, AUT, http://www.r-project.org) was used for visual diagnostics. […] The analyte (valine conjugate and parent compound) plasma concentration–time data were confirmed to have a biphasic distribution and elimination and were therefore fit separately to a linear two-compartment model with a depot for oral administration. Each model was parametrized in terms of clearance (CL), the volume of distribution of the central compartment (V1), intercompartmental clearance (Q), and the volume of the peripheral compartment (V3). Interindividual variability (IIV) for each parameter was assumed to be log-normally distributed, and residual variability (RUV) was described with a proportional error model. The PK parameter estimates from these independent models (parent compound or valine conjugate) were used as initial estimates for a combined model describing the conversion and disposition of the valine conjugate to the parent drug and associated metabolites. The model estimated the fraction of pro-drug converted to parent drug (Fm), which was used to calculate the first-order rate constant of metabolite formation (Kmet) = Fm × Kel. This rate constant was used to calculate the half-life of the conversion process and the amount of metabolite formed at complete conversion. The rate of metabolite formation was then calculated as the ratio of the amount of metabolite formed to the time required for complete conversion (~5 half-lives), as detailed in Figures S8–S11.

Series [3] is described as follows: Single-dose IV and PO pharmacokinetics in mice. The settings on record: for AUC: analyte = dosed compound; for Cmax: read-out: Cmax, Geo Mean; for Tmax: read-out: Tmax, Geo Mean. The format is in vivo, male C57BL/6 mice. As for the experimental part: The in-life study and quantitative analysis of plasma samples using LC/MS were performed at Charles River Laboratories, Inc. (Wilmington, MA, USA).

[4] abbreviates: PO, 40 mg/kg (valine conjugates 40 mg/kg EQV).

Read-outs that look alike come from different tables or passages of the source. Some results are limits rather than exact numbers.

`CC(C)[C@H](N)C(=O)Oc1ccc(Cl)cc1C(=O)Nc1ccc(C(F)(F)F)cc1` [valine–compound #11] gave a solubility (thermodynamic) in series [1] of less than 1.56 µM. For the same compound, the k el in series [2] (C57BL/6, mouse, plasma, model estimate, read-out: Kel, elimination rate constant of valine conjugate (converted)) is 0.00853 s⁻¹. Also, the “Kmet, rate constant of conversion to parent compound” value in series [2] (Kmet = Fm × Kel) worked out at 11.9 h⁻¹. Besides, in series [2] (two-compartment model estimate), the “Fraction of pro-drug converted to parent (Fm)” value is 39%. The “HL_Lambda_z, Geo Mean” value in series [3] (IV, 2 mg/kg (valine conjugates 2 mg/kg EQV)) was 1.94 h; in series [3] (setting [4]), 5.77 h. Besides, the “IV: Clobs, Geo Mean” value in series [3] (IV, 2 mg/kg (valine conjugates 2 mg/kg EQV), non-compartmental analysis) is 0.004 L/h. In series [3] (setting [4]), the “PO: Cl_Fobs, Geo Mean” value turned out to be 0.59 L/h. Also, the AUC in series [3] (male, C57BL/6, mouse, plasma, iv, 2 mg/kg, IV, 2 mg/kg (valine conjugates 2 mg/kg EQV), non-compartmental analysis, read-out: AUCall, Geo Mean) stood at 36.1 µM·h; in series [3] (male, C57BL/6, mouse, plasma, po, 40 mg/kg, PO, 40 mg/kg (valine conjugates 40 mg/kg EQV), non-compartmental analysis, read-out: AUCall, Geo Mean), 4.17 µM·h; in series [3] (male, C57BL/6, mouse, plasma, po, 40 mg/kg, single PO dose, 40 mg/kg or molar equivalent, read-out: AUCall following an oral dose), 4.17 µM·h. The Cmax in series [3] (male, C57BL/6, mouse, plasma, iv, 2 mg/kg, IV, 2 mg/kg (valine conjugates 2 mg/kg EQV)) came out at 20.2 µM; in series [3] (male, C57BL/6, mouse, plasma, po, 40 mg/kg, PO, 40 mg/kg (valine conjugates 40 mg/kg EQV)) it was 0.99 µM. Besides, the Tmax in series [3] (male, C57BL/6, mouse, plasma, IV, 2 mg/kg (valine conjugates 2 mg/kg EQV)) turned out to be 23.4 min; in series [3] (male, C57BL/6, mouse, plasma, PO, 40 mg/kg (valine conjugates 40 mg/kg EQV)), 60 min. Besides, the clearance in series [3] (male, C57BL/6, mouse, plasma, single IV dose, 2 mg/kg or molar equivalent, read-out: Systemic clearance following an IV dose (converted)) was 0.0667 mL/min.

By solubility (thermodynamic) is commonly meant the concentration in solution at equilibrium with solid. Broadly, the Cmax is the peak of the concentration-time curve. A word on the Tmax: it is the time at which the peak concentration occurs.
